# Source: US3954814A, “Alkadienylcyclopropanecarboxylates” (Sumitomo Chemical Company, Limited, priority 1971, dated 1976)
# How the values were obtained:
# house flies = test: Campbell's turn table oil spray test on house fly adults (Experimental Example 1); format: in vivo; conditions: Musca domestica, 24 h, oil spray 5 ml, 10 min exposure, mortality after 1 day, read-out: LC50 (50 percent lethal concentration)
# Procedure: The present compounds (1), (4), (8), (10), (14), (15), (20), (22), (32), (36), (38), (41), (44), (48), (50), (51), (52), (53), (61), (66), (68), (72), (73), (78), (80), (81), (90), (93) and (96), and chrysanthemic acid esters and pyrethric acid esters corresponding thereto were individually formulated by use of deodorized kerosene into oil sprays of various test concentrations.
# Using the Campbell's turn table [disclosed in "Soap & Sanitary Chemicals," Vol. 14, No. 6, page 119 (1938)], 5 ml. of each of the oil sprays was sprayed. When 20 seconds had elapsed after the spraying, the shutter was opened, and adults of house flies (a group of about 100 flies) were exposed to the settling mist for 10 minutes and then transferred to an observation cage.
# The above operation was repeated several times to measure the LC50 (50 percent lethal concentration) of each compound.
# [1] = test system: Northern house mosquitoes; test: knock-down test of oil sprays on Northern house mosquito adults in (70 cm)^3 glass chamber (Experimental Example 2); format: in vivo
# Procedure: The present compounds (1), (6), (20), (22), (23), (25), (27), (29), (30), (31), (39), (42), (43), (45), (49), (53), (56), (62), (64), (78), (81), (83), (85), (87), (88) and (89), and chrysanthemic acid esters and pyrethric acid esters corresponding thereto were individually formulated by use of deodorized kerosene into oil sprays of various test concentrations.
# About 20 adults of Northern house mosquitoes were liberated in a (70 cm)^3 glass chamber, and 0.7 ml. of each of the oil sprays was sprayed into the chamber under a pressure of 1.5 kg/cm^2 by use of a glass atomizer. Subsequently, the number of knocked-down mosquitoes was counted to calculate the KT50 (50 percent knock down time) of each compound.
# [2] = concentration of oil spray 0.2%
# [3] = concentration of oil spray 0.1%
Compound,LC50 (house flies) [µg/mL],"KT50 (50 percent knock down time) [1, 2] [s]","KT50 (50 percent knock down time) [1, 3] [s]"
"C=CCc1cc(C)c(COC(=O)C2C(C=C(C)C(=O)OC)C2(C)C)c(C)c1 (centres unmarked) [2,6-Dimethyl-4-allylbenzyl pyrethrate, reference compound]",1420,–,–
"C=CCC1=C(C)C(OC(=O)C2C(C=C(C)C(=O)OC)C2(C)C)CC1=O (centres unmarked) [2-Allyl-3-methyl-2-cyclopentene-1-one-4-yl pyrethrate, reference compound]",–,173,–
"C#CCC1=C(C)C(OC(=O)C2C(C=C(C)C)C2(C)C)CC1=O (centres unmarked) [2-Propargyl-3-methyl-2-cyclopentene-1-one-4-yl chrysanthemate, reference compound]",–,–,249
"CC(C)=CC1C(C(=O)OCN2C(=O)C3=C(CCCC3)C2=O)C1(C)C (centres unmarked) [3,4,5,6-Tetrahydrophthalimidomethyl chrysanthemate, reference compound]",–,–,103
"CC(C)=CC1C(C(=O)OCN2C(=O)C3=C(CC=CC3)C2=O)C1(C)C (centres unmarked) [3,6-Dihydrophthalimidomethyl chrysanthemate, reference compound]",–,–,107
"COC(=O)C(C)=CC1C(C(=O)OCc2cccc(Oc3ccccc3)c2)C1(C)C (centres unmarked) [3-Phenoxybenzyl pyrethrate, reference compound]",1250,–,–
"COC(=O)C(C)=CC1C(C(=O)OCc2coc(Cc3ccccc3)c2)C1(C)C (centres unmarked) [5-Benzyl-3-furylmethyl pyrethrate, reference compound]",890,182,–
"C#CCc1ccc(C(C#C)OC(=O)C2C(C=C(C)C)C2(C)C)o1 (stereo not drawn) [5-Propargyl-α-ethynylfurfuryl chrysanthemate, reference compound]",260,–,120
"C#CCc1ccc(C(C#C)OC(=O)C2C(C=C(C)C(=O)OC)C2(C)C)o1 (stereo not drawn) [5-Propargyl-α-ethynylfurfuryl pyrethrate, reference compound]",820,–,–
"C#CCc1ccc(COC(=O)C2C(C=C(C)C)C2(C)C)o1 (centres unmarked) [5-Propargylfurfuryl chrysanthemate, reference compound]",–,132,–
"CC(C)=CC1C(C(=O)OCN2C(=O)C(C)=C(C)C2=O)C1(C)C (centres unmarked) [Dimethylmaleimidomethyl chrysanthemate, reference compound]",–,–,101
"CC(C)=CC1C(C(=O)OCN2C(=O)c3ccccc3C2=S)C1(C)C (centres unmarked) [Monothiophthalimidomethyl chrysanthemate, reference compound]",–,207,–
"C#CCc1ccc(COC(=O)C2C(C=C(C)C=C)C2(C)C)o1 (centres unmarked) [Present compound (6), 5-Propargylfurfuryl 2',2'-dimethyl-3'-(2""-methyl-1"",3""-butadienyl)-cyclopropanecarboxylate]",–,105,–
"C=CCC1=C(C)C(OC(=O)C2C(C=C(C)C=C)C2(C)C)CC1=O (centres unmarked) [Present compound (23), 2-Allyl-3-methyl-2-cyclopentene-1-one-4-yl 2',2'-dimethyl-3'-(2""-methyl-1"",3""-butadienyl)-cyclopropanecarboxylate]",–,152,–
"C#CCC1=C(C)C(OC(=O)C2C(C=C(C)C=C)C2(C)C)CC1=O (centres unmarked) [Present compound (25), 2-propargyl-3-methyl-2-cyclopentene-1-one-4-yl 2',2'-dimethyl-3'-(2""-methyl-1"",3""-butadienyl)-cyclopropanecarboxylate]",–,–,190
"C=CC(C)=CC1C(C(=O)OCN2C(=O)C3=C(CCCC3)C2=O)C1(C)C (centres unmarked) [Present compound (27), 3,4,5,6-Tetrahydrophthalimidomethyl 2',2'-dimethyl-3'-(2""-methyl-1"",3""-butadienyl)-cyclopropanecarboxylate]",–,–,83
"C=CC(C)=CC1C(C(=O)OCN2C(=O)c3ccccc3C2=S)C1(C)C (centres unmarked) [Present compound (29), Monothiophthalimidomethyl 2,2-dimethyl-3-(2'-methyl-1',3'-butadienyl)-cyclopropanecarboxylate]",–,182,–

Compound,LC50 (house flies) [µg/mL],"KT50 (50 percent knock down time) [1, 2] [s]","KT50 (50 percent knock down time) [1, 3] [s]"
"C=CC(C)=CC1C(C(=O)OCN2C(=O)C3=C(CC=CC3)C2=O)C1(C)C (centres unmarked) [Present compound (30), 3,6-Dihydrophthalimidomethyl 2',2'-dimethyl-3'-(2""-methyl-1"",3""-butadienyl)-cyclopropanecarboxylate]",–,–,89
"C=CC(C)=CC1C(C(=O)OCN2C(=O)C(C)=C(C)C2=O)C1(C)C (centres unmarked) [Present compound (31), Dimethylmaleimidomethyl 2,2-dimethyl-3-(2'-methyl-1',3'-butadienyl)-cyclopropanecarboxylate]",–,–,80
"C#CCc1ccc(COC(=O)C2C(C=C(C)C=CC)C2(C)C)o1 (centres unmarked) [Present compound (39), 5-Propargylfurfuryl 2',2'-dimethyl-3'-(2""-methyl-1"",3""-pentadienyl)-cyclopropanecarboxylate]",–,114,–
"C=CCC1=C(C)C(OC(=O)C2C(C=C(C)C=CC)C2(C)C)CC1=O (centres unmarked) [Present compound (42), 2-Allyl-3-methyl-2-cyclopentene-1-one-4-yl 2',2'-dimethyl-3'-(2""-methyl-1"",3""-pentadienyl)-cyclopropanecarboxylate]",–,165,–
"CC=CC(C)=CC1C(C(=O)OCN2C(=O)C3=C(CCCC3)C2=O)C1(C)C (centres unmarked) [Present compound (43), 3,4,5,6-Tetrahydrophthalimidomethyl 2',2'-dimethyl-3'-(2""-methyl-1"",3""-pentadienyl)-cyclopropanecarboxylate]",–,–,197
"C#CCc1ccc(COC(=O)C2C(C=C(C)C=C(C)C)C2(C)C)o1 (centres unmarked) [Present compound (45), 5-Propargylfurfuryl 2',2'-dimethyl-3'-(2"",4""-dimethyl-1"",3""-pentadienyl)-cyclopropanecarboxylate]",–,117,–
"CC(C)=CC(C)=CC1C(C(=O)OCN2C(=O)C3=C(CCCC3)C2=O)C1(C)C (centres unmarked) [Present compound (49), 3,4,5,6-Tetrahydrophthalimidomethyl 2',2'-dimethyl-3'-(2"",4""-dimethyl-1"",3""-pentadienyl)-cyclopropanecarboxylate]",–,–,86
"CC=C(C)C=CC1C(C(=O)OCc2coc(Cc3ccccc3)c2)C1(C)C (centres unmarked) [Present compound (56), 5-Benzyl-3-furylmethyl 2',2'-dimethyl-3'-(3""-methyl-1"",3""-pentadienyl)-cyclopropanecarboxylate]",–,150,–
"C=CC=CC1C(C(=O)OC(C#N)c2cccc(Cc3ccccc3)c2)C1(C)C (stereo not drawn) [Present compound (62), 3-Benzyl-α-cyanobenzyl 2',2'-dimethyl-3'-(1"",3""-butadienyl)-cyclopropanecarboxylate]",–,–,144
"C#CCc1ccc(COC(=O)C2C(C=CC=C)C2(C)C)o1 (centres unmarked) [Present compound (64), 5-Propargylfurfuryl 2',2'-dimethyl-3' -(1"",3""-butadienyl)-cyclopropanecarboxylate]",–,98,–
"C#CCC1=C(C)C(OC(=O)C2C(C=CC=C)C2(C)C)CC1=O (centres unmarked) [Present compound (83), 2-Propargyl-3-methyl-2-cyclopentene-1-one-4-yl 2',2'-dimethyl-3'-(1"",3""-butadienyl)-cyclopropanecarboxylate]",–,–,183
"C=CC=CC1C(C(=O)OCN2C(=O)C3=C(CCCC3)C2=O)C1(C)C (centres unmarked) [Present compound (85), 3,4,5,6-Tetrahydrophthalimidomethyl 2',2'-dimethyl-3'-(1"",3""-butadienyl)-cyclopropanecarboxylate]",–,–,74
"C=CC=CC1C(C(=O)OCN2C(=O)c3ccccc3C2=S)C1(C)C (centres unmarked) [Present compound (87), Monothiophthalimidomethyl 2',2'-dimethyl-3'-(1"",3""-butadienyl)-cyclopropanecarboxylate]",–,177,–
"C=CC=CC1C(C(=O)OCN2C(=O)C3=C(CC=CC3)C2=O)C1(C)C (centres unmarked) [Present compound (88), 3,6-Dihydrophthalimidomethyl 2',2'-dimethyl-3'-(1"",3""-butadienyl)-cyclopropanecarboxylate]",–,–,79
"C=CC=CC1C(C(=O)OCN2C(=O)C(C)=C(C)C2=O)C1(C)C (centres unmarked) [Present compound (89), Dimethylmaleimidomethyl 2,2-dimethyl-3-(1',3'-butadienyl)-cyclopropanecarboxylate]",–,–,72
"C=CC=CC1C(C(=O)OC(C#N)c2cccc(Oc3cccc(C)c3)c2)C1(C)C (stereo not drawn) [Present compound (96), 3-(m-Tolyloxy)-α-cyanobenzyl 2',2'-dimethyl-3'-(1"",3""-butadienyl)-cyclopropanecarboxylate]",60,–,–
